Test results as given in BindingDB's records for doi:10.1021/acschembio.6b00217 (Broad Institute, 2016).

These compounds were tested against Serine/threonine-protein kinase SIK2 (Homo sapiens, UniProt Q9H0K1) (assay: Caliper-based Mobility Shift Assay). Details: pH 8.
Protocol: IC50‘s for HG-9-91-01 derivatives were measured by Caliper-based mobility shift assay (PerkinElmer). […] Reactions were quenched by adding 20 mM EDTA (pH 8) after 1 hr, and percentage of substrate conversion was measured by LabChip EZ Reader II (PerkinElmer).

Sequence of Serine/threonine-protein kinase SIK2 (Q9H0K1 whole entry): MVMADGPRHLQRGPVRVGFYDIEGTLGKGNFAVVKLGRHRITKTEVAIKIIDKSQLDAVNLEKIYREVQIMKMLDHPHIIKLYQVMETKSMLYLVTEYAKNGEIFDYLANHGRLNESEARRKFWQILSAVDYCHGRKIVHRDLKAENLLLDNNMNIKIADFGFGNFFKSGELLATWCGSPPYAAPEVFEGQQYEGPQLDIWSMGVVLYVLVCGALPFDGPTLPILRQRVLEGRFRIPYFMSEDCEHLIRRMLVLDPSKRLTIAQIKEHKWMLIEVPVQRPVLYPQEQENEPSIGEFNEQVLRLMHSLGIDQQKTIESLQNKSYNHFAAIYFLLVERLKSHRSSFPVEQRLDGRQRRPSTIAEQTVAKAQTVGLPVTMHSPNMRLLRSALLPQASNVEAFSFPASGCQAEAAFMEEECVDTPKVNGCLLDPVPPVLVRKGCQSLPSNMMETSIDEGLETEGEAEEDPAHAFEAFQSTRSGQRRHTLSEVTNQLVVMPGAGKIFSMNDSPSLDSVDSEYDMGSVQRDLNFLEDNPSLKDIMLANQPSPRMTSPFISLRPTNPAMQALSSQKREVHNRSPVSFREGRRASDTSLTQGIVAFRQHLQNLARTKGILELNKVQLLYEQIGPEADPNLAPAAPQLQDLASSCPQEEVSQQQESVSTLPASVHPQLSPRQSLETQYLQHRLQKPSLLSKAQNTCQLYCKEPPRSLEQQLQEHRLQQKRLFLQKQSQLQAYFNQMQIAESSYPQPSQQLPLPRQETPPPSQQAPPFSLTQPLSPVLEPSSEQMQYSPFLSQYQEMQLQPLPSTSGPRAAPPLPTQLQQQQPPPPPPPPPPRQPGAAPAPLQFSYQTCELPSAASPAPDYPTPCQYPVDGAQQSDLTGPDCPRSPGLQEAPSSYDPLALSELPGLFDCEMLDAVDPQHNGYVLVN

IC50 [nM]	Compound
150	CCOc1cc(C2CCN(C)CC2)ccc1Nc1ncc2c(n1)N(c1ccc(OC)cn1)C(=O)N(c1c(C)cccc1Cl)C2 [HG-9-91-01 derivative, 6]
> 7000	COc1ccc(N2C(=O)N(c3c(C)cccc3C)Cc3cnc(Nc4ccc(C5CCN(C)CC5)cc4OC(C)C)nc32)nc1 [HG-9-91-01 derivative, 7]
6	COc1ccc(N2C(=O)N(c3c(C)cccc3Cl)Cc3cnc(Nc4ccc(N5CCN(C)CC5)cc4)nc32)nc1 [YKL-05-095 (3)]
34	COc1ccc(N2C(=O)N(c3c(C)cccc3Cl)Cc3cnc(Nc4ccc(N5CCN(C)CC5)cc4OC)nc32)nc1 [YKL-05-096 (4)]
